Active and inactive are the calls of the source. The rule behind the calls is not given here. Starred links: 1 amine or outer side, 2 acyl side, 3 side chain; linkers in the order of their positions; H or OH if unused. Positions of bridges follow the written chain, without caps; N, C: chain ends. Non-standard residues stand in square brackets, D forms with d. Residues, ends and D or L forms follow the SMILES beside them. Chains are numbered I, II in the order given. Actinocin(1to9) = Cc1c2oc3c(C)ccc(C(=O)[*:2])c3nc-2c(C(=O)[*:1])c(N)c1=O; NMeV = CN[C@H](C(=O)O)C(C)C; Sar = CNCC(=O)O
Assays:
[1] = molecular target: Cyclin-dependent kinase 2/cyclin A (Homo sapiens, UniProt P24941); assay: Inhibition of Cdk2/Cyclin A; format: protein-complex assay
[2] = system: A549; assay: Antiproliferative activity against A549 cells; format: functional, cell-based; settings: Homo sapiens
[3] = system: Calf thymus DNA; assay: Ability to displace ethidium bromide from DNA; format: nucleic-acid assay
[4] = system: LS174T; assay: Antiproliferative activity against LS174T cells; format: functional, cell-based; settings: Homo sapiens
[5] = system: PC-3; assay: Antiproliferative activity against PC3 cells; format: functional, cell-based; settings: Homo sapiens
[6] = system: Calu-1; assay: Antiproliferative activity against Calu1 cells; format: functional, cell-based; settings: Homo sapiens
[7] = molecular target: Cyclin-dependent kinase 4/cyclin D1 (Homo sapiens, UniProt P11802); assay: Inhibition of Cdk4/Cyclin D1; format: protein-complex assay
Chain of Cyclin-dependent kinase 4/cyclin D1 (P11802 whole entry): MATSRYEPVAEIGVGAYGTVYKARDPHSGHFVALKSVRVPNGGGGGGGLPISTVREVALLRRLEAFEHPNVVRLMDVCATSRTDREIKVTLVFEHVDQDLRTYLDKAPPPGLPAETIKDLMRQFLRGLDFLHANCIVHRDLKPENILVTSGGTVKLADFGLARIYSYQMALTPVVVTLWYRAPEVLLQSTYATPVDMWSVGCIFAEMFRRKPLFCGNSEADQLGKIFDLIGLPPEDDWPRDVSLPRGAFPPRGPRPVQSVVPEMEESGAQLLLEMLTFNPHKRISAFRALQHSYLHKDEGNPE
Chain of Cyclin-dependent kinase 4/cyclin D1 (P24385 whole entry, further chain): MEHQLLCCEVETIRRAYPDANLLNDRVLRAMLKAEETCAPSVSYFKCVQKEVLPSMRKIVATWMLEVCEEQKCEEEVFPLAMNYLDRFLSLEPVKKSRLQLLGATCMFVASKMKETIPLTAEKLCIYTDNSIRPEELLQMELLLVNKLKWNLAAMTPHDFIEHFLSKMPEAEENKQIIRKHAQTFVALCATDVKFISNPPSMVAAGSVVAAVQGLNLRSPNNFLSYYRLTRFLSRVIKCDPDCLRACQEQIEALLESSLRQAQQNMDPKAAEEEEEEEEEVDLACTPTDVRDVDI

[8] = molecular target: T1, DNA topoisomerase 1 (Homo sapiens) (UniProt P11387); assay: Inhibition of DNA relaxation catalysed by topoisomerase1 at 10 uM; format: functional
T1 sequence (whole entry): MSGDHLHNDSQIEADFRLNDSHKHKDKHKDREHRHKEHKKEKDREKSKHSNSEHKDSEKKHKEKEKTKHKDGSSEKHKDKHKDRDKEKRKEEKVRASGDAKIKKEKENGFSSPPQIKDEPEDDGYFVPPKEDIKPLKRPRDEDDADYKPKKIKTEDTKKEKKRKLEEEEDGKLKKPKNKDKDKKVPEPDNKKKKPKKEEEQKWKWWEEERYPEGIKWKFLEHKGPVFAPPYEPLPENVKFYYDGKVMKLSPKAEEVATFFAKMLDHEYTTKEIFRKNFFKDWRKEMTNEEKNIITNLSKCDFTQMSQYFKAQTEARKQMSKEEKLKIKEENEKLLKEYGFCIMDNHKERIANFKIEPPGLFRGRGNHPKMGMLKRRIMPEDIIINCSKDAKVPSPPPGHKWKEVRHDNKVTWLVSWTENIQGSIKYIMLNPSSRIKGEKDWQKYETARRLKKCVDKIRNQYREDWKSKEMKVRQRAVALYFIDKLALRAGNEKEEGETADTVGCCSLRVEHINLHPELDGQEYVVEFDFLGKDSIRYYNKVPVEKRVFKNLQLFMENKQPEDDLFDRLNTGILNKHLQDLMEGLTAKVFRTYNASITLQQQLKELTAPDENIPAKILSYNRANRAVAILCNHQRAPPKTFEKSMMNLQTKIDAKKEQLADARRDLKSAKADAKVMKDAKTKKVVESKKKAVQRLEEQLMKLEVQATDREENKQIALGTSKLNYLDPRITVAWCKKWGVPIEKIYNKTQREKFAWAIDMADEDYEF

[9] = species on record: Homo sapiens; assay: Selectivity for Cdk4/Cyclin D1 over Cdk2/Cyclin A
[10] = molecular target: Cyclin-dependent kinase 4 (Homo sapiens) (UniProt P11802); assay: Inhibition of Cdk4-mediated phosphorylation of pRB in Calu1 cells at ser 780 residue after 24 hrs by Western blot analysis; format: functional, cell-based; settings: Calu-1
Chain of Cyclin-dependent kinase 4 (Homo sapiens) (P11802 whole entry): as the sequence (P11802 whole entry) above

[11] = molecular target: Cyclin-dependent kinase 4 (Homo sapiens) (UniProt P11802); assay: Inhibition of Cdk4-mediated phosphorylation of pRB in Calu1 cells at ser 795 residue at 6.2 uM after 24 hrs by Western blot analysis; format: functional, cell-based; settings: Calu-1
[12] = molecular target: T1, DNA topoisomerase 1 (Homo sapiens); assay: Inhibition of DNA relaxation catalysed by topoisomerase1 at 100 uM; format: functional
[13] = molecular target: Cyclin-dependent kinase 4 (Homo sapiens) (UniProt P11802); assay: Inhibition of Cdk4-mediated phosphorylation of pRB in Calu1 cells at ser […] residue at 6.2 uM after 24 hrs by Western blot analysis; format: functional, cell-based; settings: Calu-1
[14] = system: Calu-1; assay: Ratio of cell cycle arrest in serum-starved Calu1 cells at G0/G1phase to S phase after 24 hrs by FACS analysis; format: functional, Homo sapiens
[15] = system: Calu-1; assay: Cell cycle arrest in serum-starved Calu1 cells by accumulation at G2/M phase after 24 hrs by FACS analysis; format: functional, Homo sapiens
[16] = system: Calu-1; assay: Cell cycle arrest in serum-starved Calu1 cells by accumulation at S phase after 24 hrs by FACS analysis; format: functional, Homo sapiens
[17] = molecular target: Cyclin-dependent kinase 4 (Homo sapiens) (UniProt P11802); assay: Inhibition of Cdk4-mediated phosphorylation of pRB in Calu1 cells at ser 795 residue after 24 hrs by Western blot analysis; format: functional, cell-based; settings: Calu-1
[18] = system: Calf thymus DNA; assay: Ability to displace ethidium bromide from DNA at 100 uM; format: nucleic-acid assay
[19] = system: Calu-1; assay: Cell cycle arrest in serum-starved Calu1 cells by accumulation at G0/G1 phase after 24 hrs by FACS analysis; format: functional, Homo sapiens
[20] = molecular target: Cyclin-dependent kinase 4 (Homo sapiens) (UniProt P11802); assay: Inhibition of Cdk4-mediated phosphorylation of pRB in Calu1 cells at ser […] residue after 24 hrs by Western blot analysis; format: functional, cell-based; settings: Calu-1
[21] = molecular target: Cyclin-dependent kinase 4 (Homo sapiens) (UniProt P11802); assay: Inhibition of Cdk4-mediated phosphorylation of pRB in Calu1 cells at ser 780 residue at 6.2 uM after 24 hrs by Western blot analysis; format: functional, cell-based; settings: Calu-1

| Compound | IC50 [1] [µM] | IC50 [2] [µM] | Activity [3] | IC50 [4] [µM] | IC50 [5] [µM] | IC50 [6] [µM] | IC50 [7] [µM] | also measured |
| --- | --- | --- | --- | --- | --- | --- | --- | --- |
| COc1ccccc1C(=O)N(C)CCc1c[nH]c2ccccc12 | 849 | 103 | inactive | 106 | 89 | 146 | 79 | – |
| Cc1cccc(C(=O)N(C)CCc2c[nH]c3ccccc23)c1 | 830 | 96 | inactive | 88 | 81 | 136 | 78 | – |
| Cc1c2oc3c(C)ccc(C(=O)N[C@@H]4C(=O)N[C@H](C(C)C)C(=O)N5CCC[C@H]5C(=O)N(C)CC(=O)N(C)[C@@H](C(C)C)C(=O)O[C@@H]4C)c3nc-2c(C(=O)N[C@@H]2C(=O)N[C@H](C(C)C)C(=O)N3CCC[C@H]3C(=O)N(C)CC(=O)N(C)[C@@H](C(C)C)C(=O)O[C@@H]2C)c(N)c1=O [DACTINOMYCIN] (I: T[dV]P[Sar][NMeV] / II: T[dV]P[Sar][NMeV]; ester I:1-I:C, II:1-II:C; linker I:N-II:N via Actinocin(1to9)) | – | – | – | – | – | – | – | IC50 [3]: 35 µM |
| COc1cccc(C(=O)N(C)CCc2c[nH]c3ccccc23)c1 | 938 | 95 | inactive | 109 | 85 | 139 | 81 | – |
| CN(CCc1c[nH]c2ccccc12)C(=O)c1ccccc1Br | 584 | 95 | inactive | 76 | 59 | 122 | 95 | – |
| Cc1ccccc1C(=O)N(C)CCc1c[nH]c2ccccc12 | 1130 | 110 | inactive | 105 | 92 | 141 | 113 | – |
| CN(CCc1c[nH]c2ccccc12)C(=O)c1cccc(Br)c1 | 635 | 91 | inactive | 89 | 66 | 144 | 74 | – |
| CN(CCc1c[nH]c2ccccc12)C(=O)c1cccc(F)c1 | 765 | 106 | inactive | 97 | 98 | 136 | 88 | – |
| CN(CCc1c[nH]c2ccccc12)C(=O)c1ccccc1 | 1520 | 95 | inactive | 83 | 86 | 104 | 88 | – |
| CN(CCc1c[nH]c2ccccc12)C(=O)c1ccc(C(C)(C)C)cc1 | 658 | 12 | inactive | 18 | 15 | 52 | 49 | – |
| Cc1ccc(C(=O)N(C)CCc2c[nH]c3ccccc23)cc1 | 790 | 92 | inactive | 82 | 55 | 103 | 63 | – |
| CN(CCc1c[nH]c2ccccc12)C(=O)c1ccccc1F | 1230 | 103 | inactive | 110 | 108 | 145 | 103 | – |
| CN(CCc1c[nH]c2ccccc12)C(=O)c1ccc(F)cc1 | 850 | 102 | inactive | 87 | 94 | 141 | 59 | – |
| CN(CCc1c[nH]c2ccccc12)C(=O)c1ccccc1Cl | 784 | 96 | inactive | 99 | 92 | 147 | 46 | – |
| CN(CCc1c[nH]c2ccccc12)C(=O)c1ccc(Cl)cc1 | 731 | 27 | inactive | 42 | 47 | 78 | 38 | – |
| CN(CCc1c[nH]c2ccccc12)C(=O)c1ccc(-c2ccccc2)cc1 | 521 | 3.5 | inactive | 3.5 | 6.2 | 11.5 | 6.2 | Activity [8]: inactive; Selectivity ratio [9]: 100; Activity [10]: Active; Activity [11]: Active; Activity [12]: inactive; Activity [13]: Active; Ratio [14]: 16; Activity [15]: 30%; Activity [16]: 4%; Activity [17]: Active; Activity [18]: < 5%; Activity [19]: 64%; Activity [20]: Active; Activity [21]: Active |
| CN(CCc1c[nH]c2ccccc12)C(=O)c1ccc(Br)cc1 | 580 | 55 | inactive | 52 | 36 | 64 | 37 | – |
| CN(CCc1c[nH]c2ccccc12)C(=O)c1cccc(Cl)c1 | 1120 | 95 | inactive | 118 | 94 | 123 | 109 | – |

— ChEMBL document CHEMBL1138971, “CA224, a non-planar analogue of fascaplysin, inhibits Cdk4 but not Cdk2 and arrests cells at G0/G1 inhibiting pRB phosphorylation” (Bioorg Med Chem Lett, 2006)
